Data: patent US20230174488A1 (priority 2020, published 2023)

Target: SARS-CoV-2 M^PRO (Severe acute respiratory syndrome coronavirus 2, UniProt P0DTD1)
Experiment: biochemical
Format: biochemical
Conditions: In vitro potency data; 30 min pre-incubation, 25 nM M^pro, 25 µM substrate; read-out: IC50

Row | SMILES | IC50
1 | Cc1ccc(CN(C(=O)CCl)C(C(=O)NC2CCCCC2)c2cccnc2)cc1 (stereo not shown) [INSCoV-502] | 4820 nM
2 | Cc1ccccc1CCN(C(=O)CCl)C(C(=O)NC1CCCCC1)c1cccnc1 (stereo not shown) [INSCoV-503A] | 2630 nM
3 | Cc1cccc(CCN(C(=O)CCl)C(C(=O)NC2CCCCC2)c2cccnc2)c1 (stereo not shown) [INSCoV-503B] | 1000 nM
4 | Cc1ccc(CCN(C(=O)CCl)C(C(=O)NC2CCCCC2)c2cccnc2)cc1 (stereo not shown) [INSCoV-503C] | 1380 nM
5 | O=C(NC1CCCCC1)C(c1cccnc1)N(CCc1ccccc1Cl)C(=O)CCl (stereo not shown) [INSCoV-503D] | 2650 nM
6 | O=C(NC1CCCCC1)C(c1cccnc1)N(CCc1cccc(Cl)c1)C(=O)CCl (stereo not shown) [INSCoV-503E] | 660 nM
7 | O=C(NC1CCCCC1)C(c1cccnc1)N(CCc1ccc(Cl)cc1)C(=O)CCl (stereo not shown) [INSCoV-503F] | 940 nM
8 | O=C(NC1CCCCC1)C(c1cccnc1)N(CCc1ccccc1F)C(=O)CCl (stereo not shown) [INSCoV-503G] | 2300 nM
9 | O=C(NC1CCCCC1)C(c1cccnc1)N(CCc1ccccc1)C(=O)CCl (stereo not shown) [INSCoV-503] | 980 nM
10 | O=C(NC1CCCCC1)C(c1cccnc1)N(Cc1ccc(F)cc1)C(=O)CCl (stereo not shown) [INSCoV-504] | 16300 nM
11 | COc1ccccc1CN(C(=O)CCl)C(C(=O)NC1CCCCC1)c1cccnc1 (stereo not shown) [INSCoV-505] | 8650 nM
12 | O=C(NC1CCCCC1)C(c1cccnc1)N(C(=O)CCl)c1ccc(Br)cc1F (stereo not shown) [INSCoV-507] | 2130 nM
13 | O=C(NC1CCCCC1)C(c1cccnc1)N(CCc1c[nH]c2ccncc12)C(=O)CCl (stereo not shown) [INSCoV-516] | 1180 nM
14 | N#Cc1cc(OC(F)(F)F)ccc1N(C(=O)CCl)[C@@H](C(=O)NC1CCCCC1)c1cccnc1 [INSCoV-517(1)] | 80 nM
15 | N#Cc1cc(OC(F)(F)F)ccc1N(C(=O)CCl)[C@H](C(=O)NC1CCCCC1)c1cccnc1 [INSCoV-517(2)] | 1940 nM
16 | N#Cc1cc(OC(F)(F)F)ccc1N(C(=O)CCl)C(C(=O)NC1CCC(F)(F)CC1)c1cnccn1 (stereo not shown) [INSCoV-517B] | 170 nM
17 | O=C(NC1CCCCC1)C(c1cccnc1)N(C(=O)CCl)c1ccc(N2CCCC2)cc1 (stereo not shown) [INSCoV-523] | 980 nM
18 | Cc1ccc(S(=O)(=O)C(C)NC(=O)C(c2cccnc2)N(C(=O)CCl)c2ccc(C(C)(C)C)cc2)cc1 (stereo not shown) [INSCoV-531] | 12700 nM
19 | CC(C)(C)NC(=O)C(c1cccnc1)N(C(=O)CCl)c1ccc(C(C)(C)C)cc1 (stereo not shown) [INSCoV-534, N-(Tert-Butyl)-2-(N-(4-(Tert-Butyl)Phenyl)-2-Chloroacetamido)-2-(Pyridin-3-yl)Acetamide] | 1280 nM
20 | CC(C)(C)c1ccc(N(C(=O)CCl)C(C(=O)NC2CCCCC2)c2cncc(O)c2)cc1 (stereo not shown) [INSCoV-535, N-(4-(Tert-Butyl)Phenyl)-2-Chloro-N-(2-(Cyclohexylamino)-1-(5-Hydroxypyridin-3-yl)-2-Oxoethyl)Acetamide] | 1040 nM
21 | CC(C)(C)c1ccc(N(C(=O)CCl)C(C(=O)NC2CCCCC2)c2cncnc2)cc1 (stereo not shown) [INSCoV-536, N-(4-(Tert-Butyl)Phenyl)-2-Chloro-N-(2-(Cyclohexylamino)-2-Oxo-1-(Pyrimidin-5-yl)Ethyl)Acetamide] | 620 nM
22 | CC(C)(C)c1ccc(N(C(=O)CCl)C(C(=O)NC2CCCCC2)c2ccnnc2)cc1 (stereo not shown) [INSCoV-537, N-(4-(Tert-Butyl)Phenyl)-2-Chloro-N-(2-(Cyclohexylamino)-2-Oxo-1-(Pyridazin-4-yl)Ethyl)Acetamide] | 420 nM
23 | O=C(NC1CCC(F)(F)CC1)C(c1ccnnc1)N(C(=O)CCl)c1ccc(-c2cnco2)cc1 (stereo not shown) [INSCoV-537I, 2-Chloro-N-(2-((4,4-Difluorocyclohexyl)Amino)-2-Oxo-1-(Pyridazin-4-yl)Ethyl)-N-(4-(Oxazol-5-yl)Phenyl)Acetamide] | 270 nM
24 | O=C(NC1CCC(F)(F)CC1)C(c1ccnnc1)N(C(=O)CCl)c1ccc(-c2ccno2)cc1 (stereo not shown) [INSCoV-537K, 2-Chloro-N-(2-((4,4-Difluorocyclohexyl)Amino)-2-Oxo-1-(Pyridazin-4-yl)Ethyl)-N-(4-(Isoxazol-5-yl)Phenyl)Acetamide] | 360 nM
25 | CC(C)(C)c1ccc(N(C(=O)CCl)C(C(=O)NC2CCCCC2)c2cnccn2)cc1 (stereo not shown) [INSCoV-538, N-(4-(Tert-Butyl)Phenyl)-2-Chloro-N-(2-(Cyclohexylamino)-2-Oxo-1-(Pyrazin-2-yl)Ethyl)Acetamide] | 280 nM
26 | CC(C)(C)c1ccc(N(C(=O)CCl)[C@@](C)(C(=O)NC2CCCCC2)c2cccnc2)cc1 [INSCoV-538A(1)] | 230 nM
27 | CC(C)(C)c1ccc(N(C(=O)CCl)[C@](C)(C(=O)NC2CCCCC2)c2cccnc2)cc1 [INSCoV-538A(2)] | 9600 nM
28 | CC(C)(C)c1ccc(N(C(=O)CCl)C(C)(C(=O)NC2CCCCC2)c2cccnc2)cc1 (stereo not shown) [INSCoV-538A] | 900 nM

Row | SMILES | IC50
29 | CC(C)(C)c1ccc(N(C(=O)CCl)C(C(=O)NC2CCCCC2)c2cncc(C#N)c2)cc1 (stereo not shown) [INSCoV-539, N-(4-(Tert-Butyl)Phenyl)-2-Chloro-N-(1-(5-Cyanopyridin-3-yl)-2-(Cyclohexylamino)-2-Oxoethyl)Acetamide] | 800 nM
30 | CC(C)(C)c1ccc(N(C(=O)CCl)C(C(=O)NC2CCCCC2)c2c[nH]c3ncccc23)cc1 (stereo not shown) [INSCoV-549] | 2490 nM
31 | O=C(NC1CCCCC1)C(c1cccnc1)N(CCc1cccc(F)c1)C(=O)CCl (stereo not shown) [INSCoV-558, 2-Chloro-N-(2-(Cyclohexylamino)-2-Oxo-1-(Pyridin-3-yl)Ethyl)-N-(3-Fluorophenethyl)Acetamide] | 330 nM
32 | O=C(NC1CCS(=O)(=O)CC1)C(c1cncnc1)N(CCc1cccc(F)c1)C(=O)CCl (stereo not shown) [INSCoV-558A, 2-Chloro-N-(2-((1,1-Dioxidotetrahydro-2H-Thiopyran-4-yl)Amino)-2-Oxo-1-(Pyrimidin-5-yl)Ethyl)-N-(3-Fluorophenethyl)Acetamide] | 470 nM
33 | O=C(NC1CCCCC1)C(c1cccnc1)N(CCc1ccc(F)cc1)C(=O)CCl (stereo not shown) [INSCoV-559, 2-Chloro-N-(2-(Cyclohexylamino)-2-Oxo-1-(Pyridin-3-yl)Ethyl)-N-(4-Fluorophenethyl)Acetamide] | 1080 nM
34 | COc1ccccc1CCN(C(=O)CCl)C(C(=O)NC1CCCCC1)c1cccnc1 (stereo not shown) [INSCoV-560A, 2-Chloro-N-(2-(Cyclohexylamino)-2-Oxo-1-(Pyridin-3-yl)Ethyl)-N-(2-Methoxyphenethyl)Acetamide] | 4340 nM
35 | C#CC(=O)N(c1ccc(C(C)(C)C)cc1)C(C(=O)NC1CCCCC1)c1cccnc1 (stereo not shown) [INSCoV-571] | 6280 nM
36 | O=C(NC1CCCCC1)C(c1cccnc1)N(Cc1cccc(C(F)(F)F)c1)C(=O)CCl (stereo not shown) [INSCoV-574, 2-Chloro-N-(2-(Cyclohexylamino)-2-Oxo-1-(Pyridin-3-yl)Ethyl)-N-(3-(Trifluoromethyl)Benzyl)Acetamide] | 1270 nM
37 | O=C(NC1CCCCC1)C(c1cccnc1)N(Cc1ccccc1C(F)(F)F)C(=O)CCl (stereo not shown) [INSCoV-574A, 2-Chloro-N-(2-(Cyclohexylamino)-2-Oxo-1-(Pyridin-3-yl)Ethyl)-N-(2-(Trifluoromethyl)Benzyl)Acetamide] | 4970 nM
38 | O=C(NC1CCCCC1)C(c1cccnc1)N(C(=O)CCl)c1ccc2ccoc2c1 (stereo not shown) [INSCoV-576, 2-[Benzofuran-6-yl-(2-chloroacetyl)amino]-N-cyclohexyl-2-(3-pyridyl)acetamide] | 4670 nM
39 | O=C(NC1CCOCC1)C(c1cccnc1)N(C(=O)CCl)c1ccc(-c2cnco2)cc1 (stereo not shown) [INSCoV-600A(1), 2-Chloro-N-(4-(Oxazol-5-yl)Phenyl)-N-(2-Oxo-1-(Pyridin-3-yl)-2-((Tetrahydro-2H-Pyran-4-yl)Amino)Ethyl)Acetamide] | 840 nM
40 | O=C(NC1CCOCC1)C(c1cncnc1)N(C(=O)CCl)c1ccc(-c2cnco2)cc1 (stereo not shown) [INSCoV-600A(2), 2-Chloro-N-(4-(Oxazol-5-yl)Phenyl)-N-(2-Oxo-1-(Pyrimidin-5-yl)-2-((Tetrahydro-2H-Pyran-4-yl)Amino)Ethyl)Acetamide] | 430 nM
41 | O=C(NC1CCOCC1)C(c1cnccn1)N(C(=O)CCl)c1ccc(-c2cnco2)cc1 (stereo not shown) [INSCoV-600A(3), 2-Chloro-N-(4-(Oxazol-5-yl)Phenyl)-N-(2-oxo-1-(Pyrazin-2-yl)-2-((Tetrahydro-2H-Pyran-4-yl)Amino)Ethyl)Acetamide] | 410 nM
42 | O=C(NC1CCOCC1)C(c1ccnnc1)N(C(=O)CCl)c1ccc(-c2cnco2)cc1 (stereo not shown) [INSCoV-600A] | 540 nM
43 | O=C(N[C@H]1CCC(F)(F)C1)C(c1cncnc1)N(C(=O)CCl)c1ccc(-c2cnco2)cc1 (stereo partly shown) [INSCoV-600B(2)] | 190 nM
44 | O=C(NC1CCC(F)(F)C1)C(c1cncnc1)N(C(=O)CCl)c1ccc(-c2cnco2)cc1 (stereo not shown) [INSCoV-600B, 2-(N-(2-chloroacetyl)-4-oxazol-5-yl-anilino)-N-(3,3-difluorocyclopentyl)-2-pyrimidin-5-yl-acetamide] | 290 nM
45 | O=C(N[C@H]1CCOC1)C(c1cncnc1)N(C(=O)CCl)c1ccc(-c2cnco2)cc1 (stereo partly shown) [INSCoV-600C(1)] | 270 nM
46 | O=C(N[C@H]1CCOC1)[C@@H](c1cncnc1)N(C(=O)CCl)c1ccc(-c2cnco2)cc1 [INSCoV-600C(1A)] | 340 nM
47 | O=C(N[C@H]1CCOC1)[C@H](c1cncnc1)N(C(=O)CCl)c1ccc(-c2cnco2)cc1 [INSCoV-600C(1B)] | 310 nM
48 | O=C(N[C@@H]1CCOC1)C(c1cncnc1)N(C(=O)CCl)c1ccc(-c2cnco2)cc1 (stereo partly shown) [INSCoV-600C(2)] | 200 nM
49 | O=C(N[C@@H]1CCOC1)[C@H](c1cncnc1)N(C(=O)CCl)c1ccc(-c2cnco2)cc1 [INSCoV-600C(2A)] | 450 nM
50 | O=C(N[C@@H]1CCOC1)[C@@H](c1cncnc1)N(C(=O)CCl)c1ccc(-c2cnco2)cc1 [INSCoV-600C(2B)] | 160 nM
51 | O=C(NC1CCOC1)C(c1cncnc1)N(C(=O)CCl)c1ccc(-c2cnco2)cc1 (stereo not shown) [INSCoV-600C] | 220 nM
52 | O=C(NC1CC(F)(F)C1)C(c1cncnc1)N(C(=O)CCl)c1ccc(-c2cnco2)cc1 (stereo not shown) [INSCoV-600D] | 520 nM
53 | CC1(NC(=O)C(c2cncnc2)N(C(=O)CCl)c2ccc(-c3cnco3)cc2)COC1 (stereo not shown) [INSCoV-600E, 2-(N-(2-chloroacetyl)-4-oxazol-5-yl-anilino)-N-(3-methyloxetan-3-yl)-2-pyrimidin-5-yl-acetamide] | 570 nM
54 | O=C(NC1CC2(C1)CC(F)(F)C2)C(c1cncnc1)N(C(=O)CCl)c1ccc(-c2cnco2)cc1 (stereo not shown) [INSCoV-600F] | 530 nM
55 | O=C(NC1CC2(COC2)C1)C(c1cncnc1)N(C(=O)CCl)c1ccc(-c2cnco2)cc1 (stereo not shown) [INSCoV-600G] | 990 nM
